Assay results reported in patent US10351566B2, “Therapeutic compounds for pain and synthesis thereof” (priority 2015, dated 2019).
Where two headings read alike, the source gives them in different places.

Key:
[1] = assay type: in vitro ADME; details: rat plasma
Procedure: (§1) Formula 1 was stable in both mouse and human plasma, with t90 values greater than 4 h, whereas it was unstable in rat plasma, with a t90 of less than 1 h (t90 should be greater than 4 h in order to be considered stable). Most of the efficacy and safety pharmacology was therefore run in mice.

human plasma = assay type: in vitro ADME
Procedure: as §1

mouse plasma = assay type: in vitro ADME
Procedure: as §1

[2] = assay type: in vivo, rats; details: for Findings: PO, Rat
Procedure: The tolerability of Formula 1 was evaluated in mice and rats. […] The compound was also tolerated following a single dose of 100 mg/kg in the mouse.

[3] = tested on: CCI-induced neuropathic pain; experiment: Chronic constriction injury (CCI) model in mice, SC route; assay type: in vivo; details: for Dose of maximum activity / Duration of activity at maximum effect / Level of activity (% of maximum effect-baseline) / Peak of activity (T): CCl model, mice
Procedure: Study outline in brief: The sciatic nerve of mice was exposed under anesthesia, and 3 loose ligations were placed around the nerve. Animals were allowed to recover for 3 days. Tactile allodynia (von Frey testing) and thermal (hot at 50±1° C. and cold at 2±1° C.) hyperalgesia were then assessed. Animals that experienced tactile allodynia were assigned to their treatment groups (vehicle, gabapentin and Formula 1 at different doses). Animals were subsequently treated daily for a period of 5 days with either vehicle or Formula 1 at different doses. Gabapentin at a dose of 150 mg/kg was dosed only on days of testing (day 3 and day 7).

[4] = tested on: CCI-induced neuropathic pain; experiment: CCI model in mice, IP route; assay type: in vivo; details: CCl model
Text: IP route of administration was used for initial proof of principle studies with Formula 1. However, the chosen route of administration in most of the studies conducted with Formula 1 was either SC or PO. A brief protocol outline is provided in each section, for the purpose of understanding the results without elaborating on all the detailed procedures.
Table 7 summarizes the activity of Formula 1 in mice models of neuropathic pain following repeated daily administration using different routes of administration. […] Treatment with Formula 1 show activity without CNS effect.

[5] = tested on: Taxol-induced neuropathic pain; experiment: Taxol-induced neuropathic pain in the rat, per oral; assay type: in vivo; details: Taxol rats
Procedure: Study outline in brief: Taxol was administered daily for a period of 17 days (day 0 to day 16). On day 16, the withdrawal force was evaluated using the von Fey test. The animals experienced a reduction of more than 60% in the withdrawal force following repeated Taxol dosing. After a single treatment with Formula 1 at a dose of 50 mg/kg, a full reversal was recorded, i.e. the withdrawal force was similar to the values recorded prior to Taxol dosing commencement. The duration of the analgesic activity was at least 6 h.

[6] = tested on: CCI-induced neuropathic pain; experiment: CCI-induced neuropathic pain in the rat, oral; assay type: in vivo; details: CCI rats
Procedure: Study plan in brief: SD male rats were operated as described by Bennet and Xie7. On study day 7, the sensitivity of the animals to von Frey was assessed. […] The animals were then dosed with either vehicle, gabapentin or Formula 1. Treatment with Formula 1 was not effective 2 h post-single dose.

[7] = tested on: Taxol-induced neuropathic pain; experiment: Taxol-induced neuropathic pain in mice, oral route; assay type: in vivo; details: oral 50 mg/kg, study day 14, repeated daily dosing day 8 to day 14

Compound: CC(C)(C)C(=O)O[C@@H]1[C@@H]2[C@H]3C[C@H](C[C@@H]1N3Cc1ccccn1)CN2C(=O)CC(F)(F)F (relative stereo) [Formula 1, (2S*,3S*,3aS*,6R*,7aR*)-1-(pyridin-2-ylmethyl)-4-(3,3,3-trifluoropropanoyl)octahydro-1H-2,6-methanopyrrolo[3,2-b]pyridin-3-yl pivalate]
- t90 [1]: less than 1 h
- t90 (human plasma): greater than 4 h
- t90 (mouse plasma): greater than 4 h
- Findings ([2]; 50 mg/kg, 5 days): NPF
- Findings ([2]; 100 mg/kg, 1 day): NPF
- adverse effects ([2]; rats, oral, once daily 50 mg/kg for 5 days): did not show any adverse effects
- effect on response time in the hotplate test ([3]; CCI mice, SC): not significant
- response time to cold stimuli ([3]; CCI mice, SC 30 mg/kg and 60 mg/kg): increased response time to cold stimuli
- withdrawal force (von Frey) ([3]; CCI mice, SC 60 mg/kg, daily repeated treatment): significant increase in the withdrawal force
- time of peak activity on cold response ([3]; CCI mice, SC, following a single dose): 2 h
- time of peak activity on cold response ([3]; CCI mice, SC, post-dosing following repeated daily dosing): 2 h
- tolerance effect ([3]; CCI mice, SC, repeated dosing): No tolerance effect was observed
- Dose of maximum activity ([3]; SC, first SC line): 60 mg/kg
- Duration of activity at maximum effect ([3]; SC, first SC line): >4 H
- Level of activity (% of maximum effect-baseline) ([3]; SC, first SC line): 43%
- Peak of activity (T) ([3]; SC, first SC line): 2 H
- Level of activity (% of maximum effect-baseline) ([3]; SC, second SC line (readout not given)): 100%
- Dose of maximum activity ([3]; SC, second SC line): 30 mg/kg
- Duration of activity at maximum effect ([3]; SC, second SC line): >4 H
- Peak of activity (T) ([3]; SC, second SC line): 2 H
- Dose of maximum activity [4]: 30 mg/kg
- Duration of activity at maximum effect [4]: >4 H
- Peak of activity (T) [4]: 2 H
- Level of activity (% of maximum effect-baseline) ([4]; repeated daily administration): 33%
- body weight loss following Taxol dosing [5]: the rate of weight loss was reduced
- duration of the analgesic activity ([5]; oral 50 mg/kg): at least 6 h
- withdrawal force vs. vehicle 24 h post-dosing ([5]; oral 50 mg/kg): no significant difference
- withdrawal force (von Frey) ([5]; single oral treatment 50 mg/kg): full reversal
- change of activity on continuous dosing [6]: increase in compound activity
- withdrawal force (von Frey) ([6]; 2 h post-single dose): not effective
- withdrawal threshold ([6]; daily oral 50 mg/kg, study day 11, 2 h post-treatment): significant increase in the withdrawal threshold
- withdrawal force [7]: This activity was maintained
